Test results as given in publication PMC5007552, “The hVps34‐SGK3 pathway alleviates sustained PI3K/Akt inhibition by stimulating mTORC1 and tumour growth” (The EMBO Journal, 2016).
Values joined by “and” are separate entries in the source; they are usually repeats but may differ in a detail not shown here. Equal values may be shown once.

Test system: ZR-75-1 cells
Test: NanoString human kinome mRNA quantification
Format: cell-based
From the text: Human mRNAs were hybridised to NanoString human kinome and control code sets, then subjected to quantification using NanoString software. […] To permit data compaction, and simple kinome‐wide comparisons, the fold changes are log2 transformed. […] Cell pellets were resuspended at a concentration of ~6,500 cells/μl in RLT buffer (Qiagen). […] For total copy numbers, triplicate normalised count values were averaged, and to calculate fold induction, means were divided by triplicate mean values from matched DMSO controls. P‐values were calculated using unpaired t‐test (GraphPad Prism software) by employing treated and control count data for each kinase mRNA.

## NC1(c2ccc(-c3nc4ccn5c(=O)[nH]nc5c4cc3-c3ccccc3)cc2)CCC1 [MK-2206]
MAP2K6 mRNA, replicates 1-3
  MAP2K6 Normalised counts (single replicates): 273.54 and 301.57
MAP2K7 mRNA, average of 3
  MAP2K7 Normalised counts Average: 452.7
MAP2K7 mRNA, replicates 1-3
  MAP2K7 Normalised counts (single replicates): 481.41 and 429.05 and 447.64
MAP3K1 mRNA, average of 3
  MAP3K1 Normalised counts Average: 914.477
MAP3K1 mRNA, replicates 1-3
  MAP3K1 Normalised counts (single replicates): 890.44 and 933.79 and 919.2
MAP3K2 mRNA, average of 3
  MAP3K2 Normalised counts Average: 686.32
MAP3K2 mRNA, replicates 1-3
  MAP3K2 Normalised counts (single replicates): 635.93 and 734.85 and 688.18
MAP3K3 mRNA, average of 3
  MAP3K3 Normalised counts Average: 686.967
MAP3K3 mRNA, replicates 1-3
  MAP3K3 Normalised counts (single replicates): 685.93 and 665.35 and 709.62
MAP3K4 mRNA, average of 3
  MAP3K4 Normalised counts Average: 878.993
MAP3K4 mRNA, replicates 1-3
  MAP3K4 Normalised counts (single replicates): 874.08 and 929.44 and 833.46
MAP3K5 mRNA, average of 3
  MAP3K5 Normalised counts Average: 52.5933
MAP3K5 mRNA, replicates 1-3
  MAP3K5 Normalised counts (single replicates): 46.02 and 55.49 and 56.27
MAP3K6 mRNA, average of 3
  MAP3K6 Normalised counts Average: 449.24
MAP3K6 mRNA, replicates 1-3
  MAP3K6 Normalised counts (single replicates): 420.51 and 453.37 and 473.84
MAP3K7 mRNA, average of 3
  MAP3K7 Normalised counts Average: 743.277
MAP3K7 mRNA, replicates 1-3
  MAP3K7 Normalised counts (single replicates): 716.83 and 700.97 and 812.03
MAP3K8 mRNA, average of 3
  MAP3K8 Normalised counts Average: 26.4033
MAP3K8 mRNA, replicates 1-3
  MAP3K8 Normalised counts (single replicates): 26.93 and 28.56 and 23.72
MAP3K9 mRNA, average of 3
  MAP3K9 Normalised counts Average: 379.6
MAP3K9 mRNA, replicates 1-3
  MAP3K9 Normalised counts (single replicates): 365.97 and 402.99 and 369.84
MAP3K10 mRNA, average of 3
  MAP3K10 Normalised counts Average: 168.847
MAP3K10 mRNA, replicates 1-3
  MAP3K10 Normalised counts (single replicates): 162.36 and 182.33 and 161.85
MAP3K11 mRNA, average of 3
  MAP3K11 Normalised counts Average: 121.413
MAP3K11 mRNA, replicates 1-3
  MAP3K11 Normalised counts (single replicates): 113.28 and 123.25 and 127.71
MAP3K12 mRNA, average of 3
  MAP3K12 Normalised counts Average: 52.4667
MAP3K12 mRNA, replicates 1-3
  MAP3K12 Normalised counts (single replicates): 51.47 and 61.57 and 44.36
MAP3K13 mRNA, average of 3
  MAP3K13 Normalised counts Average: 189.707
MAP3K13 mRNA, replicates 1-3
  MAP3K13 Normalised counts (single replicates): 181.45 and 198.83 and 188.84
MAP3K14 mRNA, average of 3
  MAP3K14 Normalised counts Average: 43.9833
MAP3K14 mRNA, replicates 1-3
  MAP3K14 Normalised counts (single replicates): 37.84 and 44.2 and 49.91
MAP3K15 mRNA, average of 3
  MAP3K15 Normalised counts Average: 13.0267
MAP3K15 mRNA, replicates 1-3
  MAP3K15 Normalised counts (single replicates): 12.38 and 17.27 and 9.43
MAP4K1 mRNA, average of 3
  MAP4K1 Normalised counts Average: 25.6067
MAP4K1 mRNA, replicates 1-3
  MAP4K1 Normalised counts (single replicates): 20.57 and 28.56 and 27.69
MAP4K2 mRNA, average of 3
  MAP4K2 Normalised counts Average: 517.167
MAP4K2 mRNA, replicates 1-3
  MAP4K2 Normalised counts (single replicates): 521.4 and 514.19 and 515.91
MAP4K3 mRNA, average of 3
  MAP4K3 Normalised counts Average: 998.393
MAP4K3 mRNA, replicates 1-3
  MAP4K3 Normalised counts (single replicates): 947.71 and 1044.12 and 1003.35
MAP4K4 mRNA, average of 3
  MAP4K4 Normalised counts Average: 871.587
MAP4K4 mRNA, replicates 1-3
  MAP4K4 Normalised counts (single replicates): 808.64 and 924.23 and 881.89
MAP4K5 mRNA, average of 3
  MAP4K5 Normalised counts Average: 2400.42
MAP4K5 mRNA, replicates 1-3
  MAP4K5 Normalised counts (single replicates): 2332.97 and 2437.58 and 2430.72
MAPK1 mRNA, average of 3
  MAPK1 Normalised counts Average: 3519.07
MAPK1 mRNA, replicates 1-3
  MAPK1 Normalised counts (single replicates): 3459.18 and 3429.68 and 3668.36
MAPK3 mRNA, average of 3
  MAPK3 Normalised counts Average: 2954.55
MAPK3 mRNA, replicates 1-3
  MAPK3 Normalised counts (single replicates): 2922.89 and 2952.74 and 2988.02
MAPK4 mRNA, average of 3
  MAPK4 Normalised counts Average: 4.88
MAPK4 mRNA, replicates 1-3
  MAPK4 Normalised counts (single replicates): 3.29 and 5.1 and 6.25
MAPK6 mRNA, average of 3
  MAPK6 Normalised counts Average: 1788.65
MAPK6 mRNA, replicates 1-3
  MAPK6 Normalised counts (single replicates): 1729.42 and 1778.2 and 1858.34
MAPK7 mRNA, average of 3
  MAPK7 Normalised counts Average: 144.45
MAPK7 mRNA, replicates 1-3
  MAPK7 Normalised counts (single replicates): 156 and 134.55 and 142.8
MAPK8 mRNA, average of 3
  MAPK8 Normalised counts Average: 551.453
MAPK8 mRNA, replicates 1-3
  MAPK8 Normalised counts (single replicates): 558.67 and 556.75 and 538.94
MAPK9 mRNA, average of 3
  MAPK9 Normalised counts Average: 3428.01
MAPK9 mRNA, replicates 1-3
  MAPK9 Normalised counts (single replicates): 3385.55 and 3472.25 and 3426.23
MAPK10 mRNA, average of 3
  MAPK10 Normalised counts Average: 51.74
MAPK10 mRNA, replicates 1-3
  MAPK10 Normalised counts (single replicates): 66.92 and 32.03 and 56.27
MAPK11 mRNA, average of 3
  MAPK11 Normalised counts Average: 204.103
MAPK11 mRNA, replicates 1-3
  MAPK11 Normalised counts (single replicates): 193.27 and 212.73 and 206.31
MAPK12 mRNA, average of 3
  MAPK12 Normalised counts Average: 217.317
MAPK12 mRNA, replicates 1-3
  MAPK12 Normalised counts (single replicates): 225.99 and 210.13 and 215.83
MAPK13 mRNA, average of 3
  MAPK13 Normalised counts Average: 1105.76
MAPK13 mRNA, replicates 1-3
  MAPK13 Normalised counts (single replicates): 1118.59 and 1094.51 and 1104.17
MAPK14 mRNA, average of 3
  MAPK14 Normalised counts Average: 677.43
MAPK14 mRNA, replicates 1-3
  MAPK14 Normalised counts (single replicates): 691.38 and 666.22 and 674.69
MAPK15 mRNA, average of 3
  MAPK15 Normalised counts Average: 105.53
MAPK15 mRNA, replicates 1-3
  MAPK15 Normalised counts (single replicates): 90.56 and 110.22 and 115.81
MAPKAPK2 mRNA, average of 3
  MAPKAPK2 Normalised counts Average: 1630.94
MAPKAPK2 mRNA, replicates 1-3
  MAPKAPK2 Normalised counts (single replicates): 1646.7 and 1595.77 and 1650.35
MAPKAPK3 mRNA, average of 3
  MAPKAPK3 Normalised counts Average: 413.777
MAPKAPK3 mRNA, replicates 1-3
  MAPKAPK3 Normalised counts (single replicates): 380.52 and 429.05 and 431.76
MAPKAPK5 mRNA, average of 3
  MAPKAPK5 Normalised counts Average: 1446.88
MAPKAPK5 mRNA, replicates 1-3
  MAPKAPK5 Normalised counts (single replicates): 1508.54 and 1415.94 and 1416.16
MARK1 mRNA, average of 3
  MARK1 Normalised counts Average: 415.69
MARK1 mRNA, replicates 1-3
  MARK1 Normalised counts (single replicates): 399.6 and 430.79 and 416.68
MARK2 mRNA, average of 3
  MARK2 Normalised counts Average: 1522.43
MARK2 mRNA, replicates 1-3
  MARK2 Normalised counts (single replicates): 1510.36 and 1537.56 and 1519.36
MARK3 mRNA, average of 3
  MARK3 Normalised counts Average: 1279.49
MARK3 mRNA, replicates 1-3
  MARK3 Normalised counts (single replicates): 1275.85 and 1283.02 and 1279.61
MARK4 mRNA, average of 3
  MARK4 Normalised counts Average: 1238.46
MARK4 mRNA, replicates 1-3
  MARK4 Normalised counts (single replicates): 1216.76 and 1258.7 and 1239.92
MAST1 mRNA, average of 3
  MAST1 Normalised counts Average: 64.11
MAST1 mRNA, replicates 1-3
  MAST1 Normalised counts (single replicates): 68.74 and 54.62 and 68.97
MAST2 mRNA, average of 3
  MAST2 Normalised counts Average: 721.127
